The values that follow are results of earlier work, collected in patent publication US9035093B2 (Colgate-Palmolive Company, priority 2009, dated 2015).

The conditions of the data set: room temperature, natural partial pressure (3.5×10^−4 atmosphere).

Take `O=C=O` [Carbon dioxide]: the “maximum concentration of carbon dioxide in water” value is 12 µM.
